PMC9959349, “Discovery of the 3-Amino-1,2,4-triazine-Based Library as Selective PDK1 Inhibitors with Therapeutic Potential in Highly Aggressive Pancreatic Ductal Adenocarcinoma” (International Journal of Molecular Sciences, 2023)
Where two headings read alike, the source gives them in different places.

Experiments:
[1] = system: PSN-1 cells; assay: 3D spheroid cytotoxicity, acid phosphatase (APH) assay, PSN-1; details: read-out: IC50 ±S.D. PSN-1 (3D cytotoxicity); spheroids, 72 h, APH test
Procedure: (§4) The PDAC cancer spheroids were treated with tested compounds for 72 h, and cell viability was assessed by means of the acid phosphatase (APH) assay (Table 3).
(§5) An APH-modified assay was used for determining cell viability in 3D spheroids, as previously described [61]. Briefly, the pre-seeded spheroids were treated with fresh medium containing the compound to be studied at the appropriate concentration (range 2.5–200 μM). Triplicate cultures were established for each treatment. After 72 h, each well was treated with 100 μL of the assay buffer (0.1 M sodium acetate, 0.1% Triton-X-100, supplemented with ImmunoPure p-nitrophenyl phosphate; Sigma Chemical Co., Ltd.) and, following 3 h of incubation, 10 μL of 1 M NaOH solution was added. […] The mean absorbance for each drug dose was expressed as a percentage of the control untreated well absorbance (T/C) and plotted vs. drug concentration. […] The evaluation was based on means from at least four independent experiments.

[2] = target: recombinant human PDK1 (Homo sapiens, UniProt Q15118); assay: ADP-Glo kinase assay, PDK1; details: for effect on enzymatic activity of PDK1: 1.5 µM compound, 30 min preincubation
Procedure: (§6) The ability of tested compounds to inhibit the activity of PDK 1–4 isoforms was primarily assessed in cell-free experiments by a chemioluminescent assay, the ADPGlo™ Kinase Assay kit from Promega (Promega Corporation, Madison, WI, USA).
(§7) The in vitro inhibitory activity of tested compounds on recombinant human PDK1-4 isoforms (Abcam, Cambridge, MA, USA) was evaluated by using the ADPGlo™ Kinase Assay kit from Promega (Promega Corporation, Madison, WI, USA) following the instructions of the manufacturer. […] The reaction was then started by the addition of substrate/ATP for 60 min at room temperature. Subsequently, ADP-Glo™ reagent was added and incubated for 40 min prior to kinase detection reagent addition. After 30 min, the luminescence was measured with a Tecan plate reader (Tecan Infinite® M200). Raw data were normalized to the values of control wells and luminescence values for each drug dose were expressed as a percentage of the luminescence of control untreated wells. […] The evaluation was based on means from at least three independent experiments.

[3] = system: PSN-1 cells; assay: Mitochondrial membrane potential (Mito-ID kit); assay type: cell-based, human; details: IC50 concentrations
Procedure: The ΔΨ was assayed using the Mito-ID® Membrane Potential Kit according to the manufacturer’s instructions (Enzo Life Sciences, Farmingdale, NY, USA) as previously described. Briefly, PSN-1 cells (8 × 10^3 per well) were seeded in 96-well plates; after 24 h, cells were washed with PBS and loaded with Mito-ID Detection Reagent for 30 min at 37 °C in the dark. Afterward, cells were incubated with tested compounds for 60 min. CCCP (Carbonyl cyanide 3-chlorophenyl-hydrazone) was used as the positive control. Fluorescence intensity was estimated using a VICTOR X3 (PerkinElmer, Waltham, MA, USA) plate reader at 490 (excitation) and 590 nm (emission).

[4] = system: S232 PDH E1 alpha protein (PDHA1) phosphorylation in PSN-1 cells; assay: Cellular PDH phosphorylation (ELISA); assay type: cell-based, human; details: 24 h, IC50 concentrations
Procedure: As a first step, the ability of representative derivatives to target PDK in intact cancer cells was assessed by evaluating their effect on PDH phosphorylation of PSN-1 cancer cells.
PSN-1 cells (2 × 10^5) were seeded in a six-well plate in growth medium (4 mL). After 24 h, cells were incubated for 24 h with IC50 concentrations of tested compounds. Subsequently, the phosphorylation level of S232 PDH E1 alpha protein (PDHA1) was assessed by ELISA Kit (Abcam) following the manufacturer’s instructions. The amount of phosphorylated S232 PDHA1 protein was detected by measuring the absorbance of each well at 600 nm, using a Bio-Rad 680 microplate reader.

[5] = system: BxPC-3 cells; assay: 2D cytotoxicity, MTT assay, BxPC-3; assay type: cell-based; details: Homo sapiens, BXPC-3, 72 h, 72 h, MTT test, KRAS-wild-type BxPC-3; read-out: IC50 ±S.D. BxPC-3 (2D cytotoxicity)
Procedure: (§1) All newly synthesized compounds were then screened for their cytotoxic activity against two human PDAC cell lines, namely a KRAS-wild-type PDAC cell line (BxPC-3 cells) and a KRAS-mutant PDAC cell line (PSN-1 cells). […] The cytotoxicity parameters, expressed in terms of IC50 and obtained after 72 h of drug exposure by MTT assay, are listed in the Supplementary Materials (Table S2).
(§2) The growth inhibitory effect on tumor cells was evaluated by means of the MTT assay. Briefly, 3–8 × 10^3 cells/well, dependent upon the growth characteristics of the cell line, were seeded in 96-well microplates in growth medium (100 μL). After 24 h, the medium was removed and replaced with a fresh one containing the compound to be studied at the appropriate concentration. Triplicate cultures were established for each treatment. After 72 h, each well was treated with 10 μL of a 5 mg/mL MTT saline solution, and following 5 h of incubation, 100 μL of a sodium dodecyl sulfate (SDS) solution in HCl 0.01 M was added. After overnight incubation, cell growth inhibition was detected by measuring the absorbance of each well at 570 nm using a Bio-Rad 680 microplate reader. The mean absorbance for each drug dose was expressed as a percentage of the control untreated well absorbance and plotted vs. drug concentration. IC50 values, the drug concentrations that reduce the mean absorbance at 570 nm to 50% of those in the untreated control wells, were calculated by the four-parameter logistic (4-PL) model. The evaluation was based on means from at least four independent experiments.

[6] = system: BxPC-3 cells; assay: 3D spheroid cytotoxicity, acid phosphatase (APH) assay, BxPC-3; details: read-out: IC50 ±S.D. BxPC-3 (3D cytotoxicity); spheroids, 72 h, APH test
Procedure: as §4, §5

[7] = target: recombinant human HSP90 (Homo sapiens, UniProt P07900); assay: HSP90 inhibition assay (Transcreener ADP kit); assay type: biochemical; details: for decrease of HSP90 catalytic activity: 1.5 µM compound (equivalent doses)
Procedure: The in vitro inhibitory activity of tested compounds on recombinant human HSP90 was assessed by The Transcreener™ ADP kit (Bellbrook Labs) according to the manufacturer’s protocol. Human recombinant HSP90 protein was incubated with tested compounds in the presence of 250 μM ATP at 37 °C for 30 min, 4°C for 30 min and ATPase activity was stopped via the addition of the stop and detect buffer. Following this, samples were incubated for 1 h at room temperature with the ADP2 Antibody and the ADP Alexa594 Tracer. The fluorescence intensity polarization of samples was measured with a Tecan plate reader (Tecan Infinite® M200). The evaluation was based on means from at least three independent experiments.

[8] = system: PSN-1 cells; assay: ROS production (CM-H2DCFDA); assay type: cell-based, human; details: 5 µM test compounds, antimycin 3 µM as positive control
Procedure: Consistently, tested compounds, although to different extents, were effective in reducing total cellular sulfhydryl contents in PSN-1-treated cells (Figure 9B).
The production of ROS was measured in PSN-1 cells (10^4 per well) grown for 24 h in a 96-well plate in RPMI medium without phenol red (Sigma Aldrich, Germany). Cells were then washed with PBS and loaded with 10 μM 5-(and-6)-chloromethyl-2′,7′-dichlorodihydrofluorescein diacetate acetylester (CM–H2DCFDA) (Molecular Probes-Invitrogen, Eugene, OR, USA) for 45 min, in the dark. Afterward, cells were washed with PBS and incubated with tested compounds. Fluorescence increase was estimated utilizing the wavelengths of 485 nm (excitation) and 527 nm (emission) in a VICTOR X3 (PerkinElmer, USA) plate reader. Antimycin (3 μM, Sigma Aldrich), a potent inhibitor of Complex III in the electron transport chain, was used as the positive control.

[9] = system: PSN-1 cells; assay: 2D cytotoxicity, MTT assay, PSN-1; assay type: cell-based; details: Homo sapiens, PSN1, 72 h, 72 h, MTT test, KRAS-mutant PSN-1; read-out: IC50 ±S.D. PSN-1 (2D cytotoxicity)
Procedure: as §1, §2

[10] = target: recombinant human PDK4 (Homo sapiens, UniProt Q16654); assay: ADP-Glo kinase assay, PDK4; details: 1.5 µM compound
Procedure: as §6, §7

[11] = system: PSN-1 cells; assay: Cellular lactate production; assay type: cell-based, human; details: IC50 concentrations
Procedure: (§3) Cells were treated with DAP or representative compounds at IC50 concentrations and the changes in OCR and in the intracellular lactate formation were monitored.
PSN-1 cells (2 × 10^5) were seeded in a six-well plate in a growth medium (4 mL). After 24 h, cells were incubated for 60 min with IC50 concentrations of tested compounds. Changes in lactate production were assessed via colorimetric microplate assay (Lactate assay kit®, Merk, St. Louis, MO, USA) according to the manufacturer’s instructions. The intracellular lactate concentration was detected by measuring the absorbance of each well at 570 nm, using a Bio-Rad 680 microplate reader.

[12] = system: PSN-1 cells; assay: Cellular oxygen consumption (Mito-ID Extracellular O2 Sensor Kit); assay type: cell-based, human; details: IC50 concentrations
Procedure: as §3
PSN-1 cells (2 × 10^5) were seeded in a six-well plate in growth medium (4 mL). After 24 h, cells were incubated for 60 min with IC50 concentrations of tested compounds. Subsequently, oxygen consumption was assessed by Mito-ID® Extracellular O2 Sensor Kit according to manufacturer’s instructions. Fluorescence was measured using a Tecan microplate reader (Ex 340–400 nm, Em 630–680 nm).

[13] = system: caspase-3 and -8 in PSN-1 cells; assay: Caspase-3 and -8 activity; assay type: cell-based, human; details: 24 h, IC50 doses
Procedure: Apoptotic cell death can be triggered by a mitochondria-mediated or mitochondrial-independent pathways. In the […], caspase-8 and caspase-3 play an essential role. […] Staurosporine (STS), an alkaloid inducing apoptosis through caspase-3 and -8 activation was used as a positive control. […] Caspase-3 and -8 cleavage reached values similar to that induced by the well-known caspase-dependent apoptosis inducer staurosporine (Figure 10C).
Protein aliquots (100 μg) were stained at 37 °C for 60 min with fluorescent caspase-3 (N-acetyl-Asp-Glu-Val-Asp-AMC, AMC = 7-amino-4-methylcoumarin) or caspase-8 (Ac-Val-Glu-Thr-Asp-AMC) substrates. Substrate hydrolysis was measured after 60 min by monitoring the release of AMC using a a Tecan microplate reader (excitation at 370 nm, emission at 460 nm).

[14] = system: PSN-1 cells; assay: TEM analysis of mitochondria; assay type: cell-based, human; details: 24 h, IC50 concentrations
Procedure: In addition, TEM analyses were performed on PSN-1 cancer cells after 24 h treatment with IC50 concentrations of the representative compounds 5i and 6h.
About 10^6 PSN-1 cancer cells were seeded in 24-well plates and, after 24 h incubation, were treated with IC50 concentrations of tested compounds and incubated for an additional 24 h. Cells were then washed with cold PBS, harvested, and directly fixed with 1.5% glutaraldehyde buffer with 0.2 M sodium cacodylate, pH 7.4. After washing with buffer and postfixation with 1% OsO4 in 0.2 M cacodylate buffer, specimens were dehydrated and embedded in epoxy resin (Epon Araldite). Sagittal serial sections (1 μm) were counterstained with toluidine blue; thin sections (90 nm) were given contrast by staining with uranyl acetate and lead citrate. Micrographs were taken with a Hitachi H-600 electron microscope (Hitachi, Tokyo, Japan) operating at 75 kV. All photos were typeset in Corel Draw 11.

[15] = system: PSN-1 cells; assay: Cell death induction, Hoechst 33258 staining; assay type: cell-based, human; details: 48 h, IC50 doses
Procedure: As a last mechanistic evaluation, the ability of selected compounds 5i and 6h to induce cancer cell death by means of apoptosis, was also assessed.
PSN-1 cells were seeded into 8-well tissue-culture slides (BD Falcon, Bedford, MA, USA) at 5 × 10^4 cells/well (0.8 cm^2). […] Samples were examined at 5× and 40× magnification in a Zeiss LSM 800 confocal microscope using the Zeiss ZEN 2.3 software system (Zeiss, Oberkochen, Germany).

recombinant human PDK1, sequence (Q15118 29-436): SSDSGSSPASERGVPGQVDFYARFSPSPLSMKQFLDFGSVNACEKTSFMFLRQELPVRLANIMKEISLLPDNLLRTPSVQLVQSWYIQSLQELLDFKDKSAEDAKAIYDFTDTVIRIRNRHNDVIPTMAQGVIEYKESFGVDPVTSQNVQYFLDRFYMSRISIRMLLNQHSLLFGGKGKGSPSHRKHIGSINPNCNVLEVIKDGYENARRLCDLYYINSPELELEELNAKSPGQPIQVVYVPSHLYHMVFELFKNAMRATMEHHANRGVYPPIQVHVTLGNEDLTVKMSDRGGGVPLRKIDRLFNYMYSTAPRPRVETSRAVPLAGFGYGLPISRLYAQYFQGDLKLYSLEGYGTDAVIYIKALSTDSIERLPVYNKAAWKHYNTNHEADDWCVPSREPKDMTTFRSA
recombinant human PDK4, sequence (Q16654 whole entry): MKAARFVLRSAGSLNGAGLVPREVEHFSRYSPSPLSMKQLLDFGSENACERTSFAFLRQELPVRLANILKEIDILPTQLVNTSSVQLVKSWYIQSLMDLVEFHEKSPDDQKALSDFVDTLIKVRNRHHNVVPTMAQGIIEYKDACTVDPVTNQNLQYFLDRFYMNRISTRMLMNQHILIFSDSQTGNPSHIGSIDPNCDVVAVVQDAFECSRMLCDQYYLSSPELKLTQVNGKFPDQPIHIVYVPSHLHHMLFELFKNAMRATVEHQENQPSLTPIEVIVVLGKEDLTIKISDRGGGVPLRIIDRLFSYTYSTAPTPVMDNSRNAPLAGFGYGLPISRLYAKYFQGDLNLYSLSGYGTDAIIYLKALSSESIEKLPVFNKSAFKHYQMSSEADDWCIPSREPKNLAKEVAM

## Cn1cc(-c2nnc(N)nc2-c2cn(C)c3ccccc23)c2cc(Br)ccc21 [6j]
[1]
  IC50: 18.1 ± 2.3 µM
[2]
  effect on enzymatic activity of PDK1: totally suppressed
[2]; read-out: IC50 ±S.D. PDK1, four-parameter logistic model, three independent experiments
  IC50: 0.07 ± 0.02 µM
[3]
  percentage of cells with hypopolarized mitochondrial membrane potential (in words): significantly increased
[4]
  reduction in phospho-PDHA1 (S232) levels: very similar to that exerted by the reference PDK inhibitor DAP
[5]
  IC50: 0.2 ± 0.04 µM
[6]
  IC50: 41.2 ± 3.6 µM
[7]
  decrease of HSP90 catalytic activity: 60–80%
[8]
  ROS basal level production / hydrogen peroxide formation: even higher than that provoked by antimycin
[9]
  IC50: 0.6 ± 0.1 µM
[10]
  effect on PDK4 activity (ATP consumption): completely blocked
other
  melting point: 266 °C

## COc1ccc2c(c1)c(-c1nc(N)nnc1-c1cn(C)c3ccc(F)cc13)cn2C [5k]
[1]
  IC50: 15.9 ± 2.3 µM
[2]
  IC50: 0.01 ± 0.003 µM
  effect on enzymatic activity of PDK1: totally suppressed
[3]
  percentage of cells with hypopolarized mitochondrial membrane potential (in words): significantly increased
[4]
  reduction in phospho-PDHA1 (S232) levels: very similar to that exerted by the reference PDK inhibitor DAP
[6]
  IC50: 67.9 ± 3.7 µM
[7]
  decrease of HSP90 catalytic activity: 60–80%
[8]
  ROS basal level production / hydrogen peroxide formation: even higher than that provoked by antimycin
[11]
  lactate production: more potent than DAP
other
  melting point: 239.5 °C
[12]
  cellular oxygen consumption (OCR): more effective than DAP

## COc1ccc2c(c1)c(-c1nnc(N)nc1-c1cn(C)c3ccccc13)cn2C [6h]
[1]
  IC50: 24.3 ± 1.4 µM
[2]
  IC50: 0.08 ± 0.01 µM
  effect on enzymatic activity of PDK1: totally suppressed
[3]
  percentage of cells with hypopolarized mitochondrial membrane potential (in words): significantly increased
[13]
  caspase-3 and -8 activation: significantly activated
[14]
  mitochondrial morphology (TEM): dramatic swelling of the mitochondria
[6]
  IC50: 33.4 ± 3.6 µM
[7]
  IC50: 0.2 µM
[7]; 1.5 µM compound
  effect on HSP90 enzyme activity: completely abolish the enzyme activity
[8]
  ROS basal level production / hydrogen peroxide formation: increase in the ROS basal level production
[15]
  apoptosis induction (nuclear morphology): brightly stained nuclei and morphological features typical of cells undergoing apoptosis

## COc1ccc2c(c1)c(-c1nnc(N)nc1-c1c[nH]c3ccc(Br)cc13)cn2C [6s]
[1]
  IC50: 22.3 ± 2.3 µM
[2]
  IC50: 0.09 ± 0.04 µM
  effect on enzymatic activity of PDK1: totally suppressed
[3]
  percentage of cells with hypopolarized mitochondrial membrane potential (in words): significantly increased
[6]
  IC50: 29.2 ± 1.4 µM
[7]
  decrease of HSP90 catalytic activity: 60–80%
[8]
  ROS basal level production / hydrogen peroxide formation: increase in the ROS basal level production
[10]
  effect on PDK4 activity (ATP consumption): completely blocked
other
  melting point: 207.7 °C
